Test results as given in ChEMBL document CHEMBL1201862, “PubChem BioAssay data set” (2004).
Active and inactive are the calls of the source.

Key:
[1] = target: T1, Rac GTPase-activating protein 1 (Homo sapiens, UniProt Q9H0H5); test: blockers of MgcRacGAP-driven Rac1 GTP hydrolysis – biochemical, ADP Hunter fluorescence, primary and confirmatory, confirmation (AID 624330); format: functional
T1 sequence (Q9H0H5 whole entry): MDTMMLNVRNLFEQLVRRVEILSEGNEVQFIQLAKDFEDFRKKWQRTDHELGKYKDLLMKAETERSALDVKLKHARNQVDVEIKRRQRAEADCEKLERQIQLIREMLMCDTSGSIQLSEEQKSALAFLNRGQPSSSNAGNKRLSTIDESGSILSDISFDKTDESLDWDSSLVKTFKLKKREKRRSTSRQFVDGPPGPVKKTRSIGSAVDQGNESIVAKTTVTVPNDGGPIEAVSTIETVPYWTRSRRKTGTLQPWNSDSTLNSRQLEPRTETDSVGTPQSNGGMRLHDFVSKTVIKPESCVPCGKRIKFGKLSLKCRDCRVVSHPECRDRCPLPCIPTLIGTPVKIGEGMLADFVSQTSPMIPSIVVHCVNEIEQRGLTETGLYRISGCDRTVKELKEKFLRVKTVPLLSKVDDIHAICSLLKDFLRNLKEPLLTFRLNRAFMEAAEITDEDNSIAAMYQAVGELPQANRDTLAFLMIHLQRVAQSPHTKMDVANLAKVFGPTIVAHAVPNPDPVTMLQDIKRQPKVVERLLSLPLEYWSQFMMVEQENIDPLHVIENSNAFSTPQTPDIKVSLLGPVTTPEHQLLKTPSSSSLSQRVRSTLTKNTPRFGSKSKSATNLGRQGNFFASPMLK

[2] = Trypanosoma cruzi growth suppression in host cells – NIH3T3 host cells, beta-gal luminescence, confirmation (AID 2044); format: functional, cell-based;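 further: intracellular parasites grown in NIH/3T3 mouse fibroblasts as host cells; luminescent beta-galactosidase reporter signal from transgenic T. cruzi replicating inside host cells; inhibitors lower the luminescence signal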
[3] = NIH3T3 cell viability loss – ATP luminescence, mouse fibroblasts, counter-screen, dose response (AID 2010); format: functional, cell-based;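 further: cells exposed to compound for about 90 hours before reading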
Cytochrome P450 2C19 = Cytochrome P450 2C19 (Homo sapiens, UniProt P33261); test: Cytochrome panel assay with activity outcomes. Panel member name: p450-cyp2c19 Compounds with AC50 equal or less than 10 uM are considered active; format: functional
[4] = target: T2, Heat shock factor protein 1 (Mus musculus, UniProt P38532); test: decrease of HSF1-responsive luciferase luminescence – cell-based, NIH3T3, dose retest, confirmation (AID 2382); format: functional;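 further: NIH3T3 fibroblasts with HSF1-driven luciferase reporter stressed by proteasome inhibitor MG132; luminescence from HSF1-driven luciferase expression after 8 hours of MG132 stress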
T2 sequence (P38532 whole entry): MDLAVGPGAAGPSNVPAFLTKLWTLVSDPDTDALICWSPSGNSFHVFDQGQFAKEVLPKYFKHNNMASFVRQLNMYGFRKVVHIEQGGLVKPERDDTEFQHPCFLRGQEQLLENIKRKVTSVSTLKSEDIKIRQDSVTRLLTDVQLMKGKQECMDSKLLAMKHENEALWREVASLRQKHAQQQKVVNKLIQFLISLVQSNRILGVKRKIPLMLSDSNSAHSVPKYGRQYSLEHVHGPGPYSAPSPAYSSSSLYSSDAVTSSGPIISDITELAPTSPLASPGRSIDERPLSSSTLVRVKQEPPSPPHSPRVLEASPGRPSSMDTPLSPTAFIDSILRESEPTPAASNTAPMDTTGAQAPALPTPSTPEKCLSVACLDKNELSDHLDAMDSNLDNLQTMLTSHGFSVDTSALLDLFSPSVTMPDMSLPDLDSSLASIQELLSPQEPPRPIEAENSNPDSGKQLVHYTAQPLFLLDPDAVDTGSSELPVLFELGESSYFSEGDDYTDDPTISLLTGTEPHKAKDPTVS

Sequence of Cytochrome P450 2C19 (P33261 whole entry): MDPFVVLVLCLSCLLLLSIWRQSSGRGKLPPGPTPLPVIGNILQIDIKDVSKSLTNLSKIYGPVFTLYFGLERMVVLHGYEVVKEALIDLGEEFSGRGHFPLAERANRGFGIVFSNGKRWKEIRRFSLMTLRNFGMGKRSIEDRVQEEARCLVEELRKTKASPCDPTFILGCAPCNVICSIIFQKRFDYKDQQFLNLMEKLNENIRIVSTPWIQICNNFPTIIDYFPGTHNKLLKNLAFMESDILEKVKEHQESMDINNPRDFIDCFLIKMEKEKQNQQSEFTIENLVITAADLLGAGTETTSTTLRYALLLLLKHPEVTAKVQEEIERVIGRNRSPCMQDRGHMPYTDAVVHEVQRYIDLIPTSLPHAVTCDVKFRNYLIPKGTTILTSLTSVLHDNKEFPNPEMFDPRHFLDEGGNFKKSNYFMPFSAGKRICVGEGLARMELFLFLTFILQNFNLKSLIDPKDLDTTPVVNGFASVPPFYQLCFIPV

Row | SMILES | IC50 [1] | EC50 [2] | EC50 [3] | other results
1 | Brc1cccc(CNCCc2ccc3c(c2)OCO3)c1 | 179 µM (active) | – | – | –
2 | N#C/C(=C\c1cccnc1)C(=O)Nc1cccc2ccccc12 | 157 µM (active) | – | – | –
3 | CCN1CCN(C(C)C(=O)NC2CCCCC2)CC1 (stereo not given) | 75.6 µM (active) | – | – | –
4 | CCN1CCN(CCCCOc2ccccc2F)CC1 | 70.1 µM (active) | – | – | –
5 | CC(C)NCC#CCOc1ccc(Cl)cc1 | 162 µM (active) | – | – | –
6 | CC1=C(C(=O)N2CCc3ccccc32)C2(CCC(C)CC2)OC1=O (stereo not given) | – | 2.67 µM (active) | > 60 µM (not active) | –
7 | Cc1cc(/C=C(\C#N)C(=O)N2CCCCC2)cc(C)c1O | 59.4 µM (active) | – | – | –
8 | CCCCSc1nc2ccc(Nc3nc(N4CCOCC4)nc(N4CCOCC4)n3)cc2s1 | – | 1.45 µM (active) | > 60 µM (not active) | –
9 | O=C(CCc1nc(O)c2ccccc2n1)N1CCN(C/C=C/c2ccccc2)CC1 | – | 0.276 µM (active) | > 30 µM (not active) | –
10 | O=C(c1cccc(F)c1)N1CCC[C@@]2(CCN(c3ccncc3)C2)C1 | – | – | – | AC50 (Cytochrome P450 2C19; read-out: AC50): 2.51 µM (inconclusive)
11 | CCCCSc1nc2sc3c(c2c(=O)n1-c1ccccc1)CCN(C)C3 | – | 0.143 µM (active) | > 60 µM (not active) | –
12 | Cc1ccsc1-c1nc(-c2ccccc2)c(-c2ccccc2)[nH]1 | – | – | – | AC50 (Cytochrome P450 2C19; read-out: AC50): 10 µM (inconclusive)
13 | C/C(=C\C=C/[C@@H](C)C(=O)O)[C@H]1CN[C@H](C(=O)O)[C@@H]1CC(=O)O | – | – | – | AC50 (Cytochrome P450 2C19): inconclusive
14 | CCOc1ccc2nc(O)c(CN(Cc3cccs3)Cc3nnnn3C(C)(C)CC)cc2c1 | – | 2.56 µM (active) | > 30 µM (not active) | –
15 | COc1ccc(N2CCN(CC(=O)Nc3cccc(S(=O)(=O)N4CCOCC4)c3)CC2)cc1 | 77.5 µM (active) | – | – | –
16 | Cc1cc(N2CCN(C)CC2)nc2ccc(NC(=O)c3ccccc3F)cc12 | – | 1.02 µM (active) | > 60 µM (not active) | –
17 | COc1ccc(-c2cc(C(=O)N3CCN(c4cccc(C)c4C)CC3)c3ccccc3n2)cc1OC | – | 2.93 µM (active) | > 60 µM (not active) | –
18 | CC(C)CCNC(=O)CN=C(S)N(Cc1ccccc1)Cc1cccnc1 | – | 0.65 µM (active) | > 60 µM (not active) | –
19 | FC(F)(F)c1cccc(-c2cc(C3CCNCC3)n[nH]2)c1 | – | 3.5 µM (active) | 8.6 µM (active) | –
20 | O=C(CC(c1ccccc1)c1ccccc1)Nc1ccc(O)cc1 | 47.2 µM (active) | – | – | –

Row | SMILES | IC50 [1] | EC50 [2] | EC50 [3] | other results
21 | Clc1ccc(SCCOCCN2CCOCC2)cc1 | – | 0.803 µM (active) | > 60 µM (not active) | –
22 | Cc1ccc(C(=O)NC(=S)Nc2ccc(Oc3ccc(Cl)cc3)cc2)cc1 | – | 2.09 µM (active) | > 60 µM (inconclusive) | –
23 | Cc1ccc2sc(N(CCCN(C)C)C(=O)c3ccc(S(=O)(=O)N(C)Cc4ccccc4)cc3)nc2c1C | – | 0.451 µM (active) | 11.7 µM (active) | –
24 | CCOc1cc(C)c(Cl)cc1S(=O)(=O)n1ccnc1 | – | 1.83 µM (active) | 21.4 µM (active) | –
25 | O=C(Nc1ccncc1)c1ccc(-c2ccccc2)cc1 | – | 1.44 µM (active) | > 60 µM (inconclusive) | –
26 | CCOc1cc(/C=C2/NC(=O)N(Cc3ccccc3F)C2=O)ccc1O | 44.5 µM (active) | – | – | –
27 | CCCC1c2ccc(C)n2CCN1C(=O)Nc1ccc(F)cc1 (stereo not given) | – | – | – | EC50 [4]: > 195 µM (not active)
28 | COc1cc(/C=C/C(=O)N[C@@H](Cc2c[nH]c3ccccc23)C(=O)O)ccc1O | 80 µM (active) | – | – | –
29 | Nc1c(S(N)(=O)=O)cc(S(N)(=O)=O)cc1S(N)(=O)=O | – | – | – | AC50 (Cytochrome P450 2C19): inconclusive
30 | Cc1cc(C)c(C)c(OCCNCc2ccccc2)c1 | 105 µM (active) | – | – | –
31 | CCOC(=O)c1cc(-c2ccccc2)sc1NC(=O)CN1C(=O)NC(CC)(c2ccc(F)cc2)C1=O (stereo not given) | – | 2.21 µM (active) | > 60 µM (not active) | –
32 | CCCCCCCC(=O)Nc1cc(C(=O)NCCC)ccc1N1CCC2(CC1)CC(c1ccccc1)=NO2 | – | 1.76 µM (active) | > 60 µM (not active) | –
33 | COc1ccc(NCc2cccnc2)cc1 | 53.1 µM (active) | – | – | –
34 | CCC(CC)N1CCN(C(=O)c2cccc(Cl)c2)CC1 | 193 µM (active) | – | – | –
35 | COc1ccc(Cc2nc3c4c(ncn3n2)Oc2ccc3ccccc3c2C4c2ccc(OC)c(OC)c2)cc1 (stereo not given) | – | 1.52 µM (active) | > 60 µM (inconclusive) | –
36 | O=C(CCN1CCN(c2ccccc2)CC1)c1ccc(Br)cc1 | – | 1.85 µM (active) | > 60 µM (not active) | –
37 | Cc1ccc(N/C(SCc2ccccc2C)=C(/C#N)C(=O)NCc2ccco2)cc1C | – | 1.3 µM (active) | > 60 µM (not active) | –
38 | CCOc1ccc(OCCOCCN2CCCC2)cc1 | 109 µM (active) | – | – | –
39 | COc1ccc(OC)c(CNC(=O)CCNC(=O)Cn2ccc3ccccc3c2=O)c1 | – | – | – | AC50 (Cytochrome P450 2C19; read-out: AC50): 31.6 µM (inconclusive)
40 | Cc1nc2cnc(Oc3cccc(Cl)c3)nc2n(C2CC2)c1=O | – | – | – | AC50 (Cytochrome P450 2C19; read-out: AC50): 31.6 µM (inconclusive)

Row | SMILES | IC50 [1] | EC50 [2] | EC50 [3] | other results
41 | C=CCc1cc(Cl)ccc1OCCNCCN1CCOCC1 | 90.8 µM (active) | 0.136 µM (active) | > 60 µM (not active) | –
42 | CC1(C)C2([N+](=O)[O-])CN3CC1([N+](=O)[O-])CN(C2)C3c1ccccc1 (stereo not given) | – | – | – | AC50 (Cytochrome P450 2C19; read-out: AC50): 0.355 µM (inconclusive)
43 | CC1CCCCN1C(=O)C(=O)c1cn(CC(=O)N2CCCCCC2)c2ccccc12 (stereo not given) | – | 1.49 µM (active) | > 60 µM (not active) | –
44 | Cc1cccc2cc(CN(Cc3ccc(F)cc3)Cc3nnnn3C3CCCC3)c(O)nc12 | – | 2.38 µM (active) | 28.9 µM (active) | –
45 | COc1ccc(CCN=C(S)NCc2ccc(Cl)c(Cl)c2)cc1OC | – | 2.05 µM (active) | > 60 µM (inconclusive) | –
46 | C[N+](C)(C)c1ncnc2c1ncn2[C@@H]1CCCCO1 | – | – | – | AC50 (Cytochrome P450 2C19): inconclusive
47 | O=[N+]([O-])c1ccc(S(=O)(=O)N2CCN(Cc3c[nH]c4ccccc34)CC2)cc1 | – | 1.31 µM (active) | > 60 µM (not active) | –
48 | CSc1nc(C)c2c(n1)N(c1ccc(O)cc1)CC2 | 16.8 µM (active) | – | – | –
49 | CCN(CC)c1ccc(NC(=O)CN2C(=O)NC3(CCc4ccccc43)C2=O)cc1 (stereo not given) | 89.8 µM (active) | – | – | –
50 | Cc1cc(C(=O)Nc2c(C)n(C)n(-c3ccccc3)c2=O)c2ccccc2n1 | – | – | – | AC50 (Cytochrome P450 2C19): inconclusive
51 | COc1cc(/C=C/C(=O)OCC(=O)NCCCc2ccccc2)ccc1O | 41.5 µM (active) | – | – | –
52 | O=C(Cc1coc2cc(O)ccc12)NNC(=O)c1ccc(Br)s1 | 31.8 µM (active) | – | – | –
53 | O=C(CCc1ccc(O)c(O)c1)N/N=C/c1ccc2c(c1)OCO2 | 91.7 µM (active) | – | – | –
54 | COc1ccccc1N1CCN(/N=C/c2cc(OC)c(O)c(OC)c2)CC1 | 252 µM (active) | – | – | –
55 | CCc1cc(/C(Cc2cscn2)=N\O)c(O)cc1O | 52 µM (active) | – | – | –
56 | COc1cc(/C=N/NC(=O)CCN2CCN(C(c3ccccc3)c3ccccc3)CC2)ccc1O | 50.9 µM (active) | – | – | –
57 | Cc1occc1C(=O)N/N=C/c1ccc(-c2cccc([N+](=O)[O-])c2)o1 | – | 2.05 µM (active) | > 60 µM (not active) | –
58 | CCCc1cc(=O)[nH]c(=S)[nH]1 [PROPYLTHIOURACIL] | – | – | – | AC50 (Cytochrome P450 2C19): inconclusive
59 | CSC(=N)NCCC[C@@H](N)C(=O)O [S-METHYL-D-THIOCITRULLINE] | – | – | – | AC50 (Cytochrome P450 2C19): inconclusive
